In patent US5843885A, “ICAM-1/LFA-1 short-chain peptides and method of using same” (The University of Kansas, priority 1997, dated 1998):
Where no end group is shown, it is not given here.

How the values were obtained:
Molt3 cells = assay: Cell metabolic assay (MTT); format: cell-based, human
Experimental: After taking the photographs in Example 3 (and in some instances no photographs were taken), cell metabolic activity was assessed by an MTT assay. A 37.5 μl portion of MTT dye (purchased from SIGMA of St. Louis, Mo.), i.e., 3-[4,5-dimethyl thiazole-2yl]-2, 5-diphenyl tetrazolium bromide; thiazolyl blue) was added to each well, and incubated with the cells at 37° C. for about six hours. After incubation, a 250 μl quantity of a MTT solubilization solution (of a type that may be purchased from either Fischer Scientific of St. Louis, Mo. or BCD Labs of Lawrence, Kans.) was added to each well, and incubated with the cells at room temperature overnight. In the morning, the spectrophotometric absorption of each plate was determined at 570 nm in a microplate ELISA reader manufactured by Cambridge Technologies of Watertown, Mass., in order to assess cell viability as an indicator of potential peptide toxicity.

[1] = target: T1, ICAM-1 (CD54) on Molt3 cells (Homo sapiens, UniProt P05362); assay: Antibody binding assay (FACS): anti-CD54 mAb binding to Molt3 T-cells; settings: for Fluorescence, % change from control of the medium fluorescence intensity: mAb CD54
T1 construct: host or cells: Molt3 human T-cell line
T1 sequence (P05362 28-532): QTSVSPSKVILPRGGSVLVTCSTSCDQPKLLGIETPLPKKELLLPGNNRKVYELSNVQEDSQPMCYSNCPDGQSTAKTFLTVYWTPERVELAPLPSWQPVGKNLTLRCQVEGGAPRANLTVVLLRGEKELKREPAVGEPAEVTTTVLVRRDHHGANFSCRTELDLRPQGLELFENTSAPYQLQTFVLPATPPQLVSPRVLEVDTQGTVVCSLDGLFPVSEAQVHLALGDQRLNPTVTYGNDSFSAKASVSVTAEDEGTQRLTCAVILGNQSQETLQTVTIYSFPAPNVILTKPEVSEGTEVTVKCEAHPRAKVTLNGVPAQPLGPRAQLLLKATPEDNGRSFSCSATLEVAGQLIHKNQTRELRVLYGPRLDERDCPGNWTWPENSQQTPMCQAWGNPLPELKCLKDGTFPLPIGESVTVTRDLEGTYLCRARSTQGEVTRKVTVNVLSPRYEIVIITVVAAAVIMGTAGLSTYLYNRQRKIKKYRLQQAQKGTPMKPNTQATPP

[2] = target: Leucocyte Function Associated antigen-1 (LFA-1), on Molt3 human T-cells (human); assay: flow cytometry on Molt3 T-cells preincubated with SC-3-111 (run of FIG. 2); FITC goat anti-mouse IgG secondary
[3] = target: Leucocyte Function Associated antigen-1 (LFA-1), on Molt3 human T-cells (human); assay: flow cytometry on Molt3 T-cells; control without peptide; FITC goat anti-mouse IgG secondary
[4] = target: T2, LFA-1 (CD11a) on Molt3 cells (Homo sapiens, UniProt P20701); assay: Antibody binding assay (FACS): anti-CD11a mAb binding to Molt3 T-cells; settings: for Fluorescence, % change from control of the medium fluorescence intensity: mAb CD11a, average ± standard error; for blocking efficiency: single run (FIGS. 2 and 3)
T2 construct: host or cells: Molt3 human T-cell line
T2 sequence (P20701 26-1170): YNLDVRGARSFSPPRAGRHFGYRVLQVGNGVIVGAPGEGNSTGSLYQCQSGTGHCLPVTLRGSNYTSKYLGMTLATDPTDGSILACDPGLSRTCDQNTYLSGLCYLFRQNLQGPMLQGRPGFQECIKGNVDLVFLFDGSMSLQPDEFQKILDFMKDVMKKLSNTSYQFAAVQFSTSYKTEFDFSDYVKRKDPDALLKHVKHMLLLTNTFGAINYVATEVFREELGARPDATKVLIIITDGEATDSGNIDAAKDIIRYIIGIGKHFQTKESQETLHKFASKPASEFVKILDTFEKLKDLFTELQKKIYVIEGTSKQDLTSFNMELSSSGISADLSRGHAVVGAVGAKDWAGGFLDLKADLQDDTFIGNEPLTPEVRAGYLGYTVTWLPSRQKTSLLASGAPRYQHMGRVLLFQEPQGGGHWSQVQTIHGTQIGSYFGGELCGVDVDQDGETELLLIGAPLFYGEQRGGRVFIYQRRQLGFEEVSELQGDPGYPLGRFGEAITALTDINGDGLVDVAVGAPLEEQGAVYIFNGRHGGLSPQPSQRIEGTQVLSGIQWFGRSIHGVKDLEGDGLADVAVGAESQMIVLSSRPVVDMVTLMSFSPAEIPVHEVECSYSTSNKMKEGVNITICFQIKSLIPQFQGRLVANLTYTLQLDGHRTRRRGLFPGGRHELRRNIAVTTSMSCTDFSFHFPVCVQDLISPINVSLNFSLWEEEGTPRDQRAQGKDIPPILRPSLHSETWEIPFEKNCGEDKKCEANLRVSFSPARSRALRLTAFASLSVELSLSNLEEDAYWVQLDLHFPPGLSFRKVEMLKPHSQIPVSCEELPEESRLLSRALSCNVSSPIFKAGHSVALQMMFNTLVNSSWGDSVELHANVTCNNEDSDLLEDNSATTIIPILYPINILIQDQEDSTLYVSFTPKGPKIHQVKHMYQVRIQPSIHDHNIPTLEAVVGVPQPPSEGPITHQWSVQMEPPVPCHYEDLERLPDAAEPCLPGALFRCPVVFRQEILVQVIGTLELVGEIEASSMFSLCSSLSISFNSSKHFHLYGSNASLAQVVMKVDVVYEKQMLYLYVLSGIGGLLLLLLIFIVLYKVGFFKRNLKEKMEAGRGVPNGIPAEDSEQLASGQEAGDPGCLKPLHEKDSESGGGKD
T2 sequence (P05107 23-769 partner): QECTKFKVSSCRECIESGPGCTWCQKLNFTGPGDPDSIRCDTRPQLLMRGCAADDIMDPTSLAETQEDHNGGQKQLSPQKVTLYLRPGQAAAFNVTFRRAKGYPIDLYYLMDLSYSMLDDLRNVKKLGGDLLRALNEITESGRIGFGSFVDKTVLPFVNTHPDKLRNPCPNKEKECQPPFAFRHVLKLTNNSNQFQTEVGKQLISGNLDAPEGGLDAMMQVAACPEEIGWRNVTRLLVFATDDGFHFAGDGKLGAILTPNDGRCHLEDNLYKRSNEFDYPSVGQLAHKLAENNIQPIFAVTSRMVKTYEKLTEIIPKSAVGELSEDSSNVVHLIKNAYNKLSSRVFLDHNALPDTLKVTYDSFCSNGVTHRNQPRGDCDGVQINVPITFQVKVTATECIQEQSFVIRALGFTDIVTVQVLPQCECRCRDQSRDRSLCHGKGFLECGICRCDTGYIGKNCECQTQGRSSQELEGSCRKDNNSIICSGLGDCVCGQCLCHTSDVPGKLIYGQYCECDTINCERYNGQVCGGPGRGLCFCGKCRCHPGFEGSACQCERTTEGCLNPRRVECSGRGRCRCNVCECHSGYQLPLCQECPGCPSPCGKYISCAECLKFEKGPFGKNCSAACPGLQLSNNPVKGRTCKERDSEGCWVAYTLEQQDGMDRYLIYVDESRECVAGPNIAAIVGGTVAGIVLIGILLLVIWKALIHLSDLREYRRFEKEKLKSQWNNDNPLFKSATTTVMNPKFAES
Experimental: A 1 ml quantity of the Molt3 inoculum was warmed to 37° C. and transferred by pipette into about 25 ml of a growth culture medium including RPMI 1640 lymphocyte growth medium (Fisher Scientific of St. Louis, Mo.) mixed with 10% by volume fetal calf serum, 100 units/ml penicillin, 100 μg/ml streptomycin and 2 mM glutamine. The inoculated culture was incubated for three to four days at 37° C. under a normal atmosphere having about 5% CO2 added thereto. This culture was capable of being maintained indefinitely by siphoning away the top (non-cell containing) layer and adding 50 ml (or more) of growth culture medium at intervals of three to four days.
An aqueous buffer solution including Dulbecco's phosphate buffered saline and bovine serum albumin ("PBS/BSA solution") was prepared for use, and included a mixture of 200 mg KH2 PO4, 1.15 g Na2 HPO4, 100 mg CaCl2, 200 mg KC1, 100 mg MgCl2.6H2 O, 8 g NaCl, with distilled water added to a final 1 liter volume at room temperature, thus, forming a "PBS" solution of pH 7.4 to which was added 0.5% by weight bovine serum albumin.
An aliquot of about 7 ml was removed from the incubated culture medium and subjected to washing with the PBS/BSA solution. The washing procedure was initiated by placing the aliquot in a centrifuge (Model GT422 from Jouan, distributed Piruscio & Assoc. of Manchester, Mo.) at 1400 rpm for 6.5 minutes to separate the cells from the growth medium. The supernatant fluid was decanted, a 5 ml portion of PBS/BSA solution was transferred by pipette into the pellet, and the mixture was again centrifuged as before. The resulting supernatant fluid was decanted and the cells from the pellet were resuspended in PBS/BSA solution at a titer of about 1×10^6 cells/ml. A 500 μl portion of the solution containing the resuspended cells was placed in a microcentrifuge (Marathon 13K/M from Fisher Scientific of St. Louis, Mo.) at 3500 rpm for six minutes, to provide a washed pellet.
[…] The cells were incubated with the peptide cocktail at 37° C. for 45 minutes.
After incubation with the peptide cocktail, several antibodies were successively mixed into the incubated solution. A 75 μl portion of anti-IgM solution (a mixture of 10 μl of goat anti-human IgM stock purchased from Jackson Immuno Research of Westgrove, Pa; and 65 μl of PBS/BSA solution) was added to the peptide cocktail for blocking of nonspecific binding of the secondary antibody. The resulting mixture was incubated for 10 minutes on ice. About 0.1 μg of a primary antibody including mouse IgG anti-human CD11a (purified according to conventional protocols at the University of Kansas Department of Pharmacology and Toxicology from an American Type Culture hybridoma cell line having Catalogue Number HB-202) was next stirred into the mixture, which was then incubated for 30 minutes at room temperature. The incubated mixture was placed in a microcentrifuge at 3500 rpm for six minutes to remove the cells from the mixture, and the cell pellet was washed two times by adding 500 μl aliquots of PBS/BSA solution and microfuging to remove non-bound antibodies from the cells as before. The resulting washed pellet was resuspended in 100 μl of a secondary antibody cocktail including 5 μl of fluorescein isothiocyanate ("FITC") labeled goat anti-mouse IgG (from CALTAG of South San Francisco, Calif.) and 95 μl of PBS/BSA solution. The resulting solution was incubated for 30 minutes at room temperature in the dark.
The incubated solution including the secondary antibody cocktail was microfuged at 3500 rpm for six minutes to remove the cells from the solution, and the cell pellet was washed two times with 500 μl portions of PBS/BSA solution, as before, to remove unbound antibodies. […]

ICAM-1 on Molt3 cells = target: T3, ICAM-1 on Molt3 cells (Homo sapiens, UniProt P05362); assay: Conformation modulator assay: binding of FITC-labeled RB-1-88 peptide to T-cells (FACS); settings: first peptide 4550 μM, then FITC-labeled RB-1-88 1.90 μM
T3 construct: host or cells: Molt3 human T-cell line
T3 sequence (P05362 28-532): as the sequence (P05362 28-532) above
Experimental: The antibody binding assay of Example 2 was twice repeated at a peptide concentration of 4550 μM, each time substituting a 455 nmol quantity of synthetic peptide selected from the group consisting of ICAM-based peptide SC-3-111 (Sequence ID No. 10) and LFA-based peptide LJCRF-4 (Sequence ID No. 16) in respective assays. Following incubation for 30 minutes at 37° C. after introduction of the first peptides, both incubated culture were supplemented by an additional quantity of FITC-labeled RB-1-88 (Sequence ID No. 19) peptide in a quantity sufficient to provide a 1.90 μM concentration in the cell/PBS solution.
Following addition of the RB-1-88 (Sequence ID No. 19) peptide, the mixture was incubated for 30 minutes at 4° C., washed three times with 500 μl PBS/BSA, resuspended in 500 μl PBS/BSA and immediately subjected to a flow cytometer analysis as before. Table 3 presents the results of this analysis, which are also depicted in FIGS. 8 (SC-3-111) and 9 (LJCRF-4).

[5] = target: Leucocyte Function Associated antigen-1 (LFA-1), on Molt3 human T-cells (human); assay: flow cytometry on Molt3 T-cells; peptide 4550 µM; probe antibody mouse IgG anti-human CD11a; average of 2 runs
[6] = peptide 4550 μM, average ± standard error

| Molecule | MTT % Viability (Molt3 cells; 230 μM) [%] | MTT % Viability (Molt3 cells; 460 μM) [%] | MTT % Viability (Molt3 cells; 910 μM) [%] | MTT % Viability (Molt3 cells; 1820 μM) [%] | Fluorescence, % change from control of the medium fluorescence intensity ([4]; peptide 2275 μM) | Fluorescence, % change from control of the medium fluorescence intensity ([4]; peptide 4550 μM) [%] | further results |
| --- | --- | --- | --- | --- | --- | --- | --- |
| GVDVDQDGETELIGAPLFYGEQRG [LJCRF-5] | 84 | 81 | 52 | 20 | – | – | MTT % Viability (Molt3 cells; 115 μM): 95%; metabolic activity in MTT assay (Molt3 cells; 1820 μM): decrease in metabolic activity; Fluorescence, % change from control of the medium fluorescence intensity [1, 6]: -17% |
| mouse IgG anti-human CD11a (from American Type Culture hybridoma cell line HB-202) (antibody) | – | – | – | – | – | – | median peak fluorescence intensity (fluorescence intensity) [2]: 129; median peak fluorescence intensity (fluorescence intensity) [3]: 264 |
| LPRGGSVLVTG [MC-1-80] | – | – | – | – | – | – | metabolic activity in MTT assay (Molt3 cells; 910 μM): cellular respiration was enhanced |
| ITDGEATDSGNIDAAKDIIYIIGI [LJCRF-6] | – | – | – | – | – | – | Fluorescence, % change from control of the medium fluorescence intensity [1, 6]: -4% |
| DQPKLLGIETPLPKKELLLPGNNRK [LJCRF-2] | 38 | 38 | 38 | 43 | +48 ± 8% | -43 ± 7 | MTT % Viability (Molt3 cells; concentration not given): 38% |
| QTSVSPSKVI [SC-3-111] | 93 | 95 | 89 | 69 | -12 ± 4% | -29 ± 2 | MTT % Viability (Molt3 cells; concentration not given): 85%; % change of median peak from control ([4]; single run (FIG. 2), 4550 μM, anti-CD11a): -51%; blocking efficiency ([4]; 4550 μM, anti-CD11a): 51% |
| DLSYSLDDLRNVKKLGGDLLRALNE [LJCRF-4] | 101 | 94 | 60 | 11 | – | – | MTT % Viability (Molt3 cells; 115 μM): 99%; MTT % Viability (Molt3 cells; 115 μM, listed as SC-3-223): 103%; MTT % Viability (Molt3 cells; 230 μM, listed as SC-3-223): 109%; MTT % Viability (Molt3 cells; 460 μM, listed as SC-3-223): 112%; MTT % Viability (Molt3 cells; 910 μM, listed as SC-3-223): 108%; MTT % Viability (Molt3 cells; 1820 μM, listed as SC-3-223): 75%; FACS Analysis (RB-1-88 binding), shift from control (ICAM-1 on Molt3 cells): +145%; Fluorescence, % change from control of the medium fluorescence intensity ([1]; peptide 2275 μM, average ± standard error): +3 ± 1%; Fluorescence, % change from control of the medium fluorescence intensity ([1]; peptide 6825 μM): +521%; curve shift / median peak enhancement ([1]; single run (FIG. 4), 4550 μM, anti-ICAM-1 mAb): +447% |
| QTSVSPSKVILPRGGSVLVTG [LJCRF-1] | – | 93 | 92 | 66 | -12 ± 2% | -29 ± 3 | blocking efficiency ([4]; 4550 μM, anti-CD11a): 65% |
| KELLLPGNNRKVYELSNVQEDSQP [LJCRF-3] | – | – | – | – | – | -13 ± 19 | – |
| KELLLPGNNRKVYELSNVQEDSQP [LJCRF-3] | – | – | – | – | – | – | % change from control of the median fluorescence intensity (% change from control) [5]: -13 |
